Results on 18 compounds are retold here after ChEMBL document CHEMBL3045430, “Natural products-based insecticidal agents 11. Synthesis and insecticidal activity of novel 4α-arylsulfonyloxybenzyloxy-2β-chloropodophyllotoxin derivatives against Mythimna separata Walker in vivo” (2011).

The test system of test [1] is Mythimna separata. The experiment in a line: In vivo insecticidal activity against pre-third-instar larval stage of Mythimna separata (Oriental armyworm) in corn leaves assessed as corrected mortality rate at 1 mg/ml treated for 3 secs before larval infestation on corn leaves measured after 35 days by leaf-dipping method. The class given is functional. Conditions: 840 h.

In test [2] the test system is Mythimna separata. Description: In vivo insecticidal activity against pre-third-instar larval stage of Mythimna separata (Oriental armyworm) in corn leaves assessed as induction of malformed moth with imperfect wings at 1 mg/ml treated for 3 secs before larval infestation on corn leaves measured after […] by leaf-dipping method. It is filed as functional, organism-based.

The test system of test [3] is Mythimna separata. Description: In vivo insecticidal activity against pre-third-instar larval stage of Mythimna separata (Oriental armyworm) in corn leaves assessed as corrected mortality rate at 1 mg/ml treated for 3 secs before larval infestation on corn leaves measured after 10 days by leaf-dipping method. The class given is functional. As to conditions: 240 h.
Test [4] concerns Mythimna separata. Description: In vivo insecticidal activity against pre-third-instar larval stage of Mythimna separata (Oriental armyworm) in corn leaves assessed as corrected mortality rate at 1 mg/ml treated for 3 secs before larval infestation on corn leaves measured after 20 days by leaf-dipping method. It is filed as functional. Conditions: 480 h.
Test [5] relates to Mythimna separata. The experiment in a line: In vivo insecticidal activity against pre-third-instar larval stage of Mythimna separata (Oriental armyworm) in corn leaves assessed as induction of malformed pupae at 1 mg/ml treated for 3 secs before larval infestation on corn leaves measured after […] by leaf-dipping method. It is filed as functional, organism-based.
The subject of test [6] is Mythimna separata. Description: In vivo insecticidal activity against pre-third-instar larval stage of Mythimna separata (Oriental armyworm) in corn leaves assessed as induction of slim and wrinkled larval bodies at 1 mg/ml treated for 3 secs before larval infestation on corn leaves measured after 48 hr by leaf-dipping method. The class given is functional, organism-based.

The source made the active and inactive calls. The rule behind the calls is not given here.

One may read the mortality as the percentage killed. As for `COc1cc([C@@H]2c3cc4c(cc3[C@H](OCc3ccccc3OS(=O)(=O)c3ccc(Cl)cc3)[C@H]3COC(=O)[C@]23Cl)OCO4)cc(OC)c1OC`, the mortality at 1000 µg/mL in the test on Mythimna separata [1] came to 48%; with Mythimna separata [3], 7.1%; in the test with Mythimna separata [4] it was 34.6%. The outcome in the test on Mythimna separata [2] was Active.

Take `COc1ccc(S(=O)(=O)Oc2ccccc2CO[C@H]2c3cc4c(cc3[C@@H](c3cc(OC)c(OC)c(OC)c3)[C@@]3(Cl)C(=O)OC[C@H]23)OCO4)cc1`: the mortality at 1000 µg/mL in the test on Mythimna separata [1] came out at 48%; with Mythimna separata [3], 17.9%; in the test with Mythimna separata [4], 34.6%. Besides, the result with Mythimna separata [2] was Active.

Take `COc1cc([C@@H]2c3cc4c(cc3[C@H](O)[C@H]3COC(=O)[C@]23Cl)OCO4)cc(OC)c1OC` [2BETA-CHLOROPODOPHYLLOTOXIN]: the figures for the mortality at 1000 µg/mL in the test with Mythimna separata [1], with Mythimna separata [3] and with Mythimna separata [4] were 36%, 14.3% and 15.4%, respectively.

In the case of `COc1cc([C@@H]2c3cc4c(cc3[C@H](OCc3ccc(OS(=O)(=O)c5ccc(C)cc5)cc3)[C@H]3COC(=O)[C@]23Cl)OCO4)cc(OC)c1OC`, the mortality at 1000 µg/mL with Mythimna separata [1] turned out to be 40%; in the test with Mythimna separata [3], 17.9%; in the test on Mythimna separata [4] it was 38.5%. For the same compound, the outcome in the test with Mythimna separata [5] was Active.

Regarding `COc1ccc(S(=O)(=O)Oc2ccc(CO[C@H]3c4cc5c(cc4[C@@H](c4cc(OC)c(OC)c(OC)c4)[C@@]4(Cl)C(=O)OC[C@H]34)OCO5)cc2)cc1`, the mortality at 1000 µg/mL worked out at 48% with Mythimna separata [1], 21.4% in the test with Mythimna separata [3] and 34.6% in the test on Mythimna separata [4].

In the case of `CC(=O)O[C@@H]1C[C@H](O)[C@@]23CO[C@@H](O)[C@]1(C)[C@@H]2C[C@@H](O)[C@]1(C)[C@@H]3C(=O)[C@H](OC(C)=O)[C@@]2(C)[C@H](c3ccoc3)C[C@H]3O[C@]321` [TOOSENDANIN], the mortality at 1000 µg/mL with Mythimna separata [1] came out at 48%; in the test on Mythimna separata [3], 17.9%; in the test on Mythimna separata [4], 34.6%.

With `COc1cc([C@@H]2c3cc4c(cc3[C@H](O)[C@H]3COC(=O)[C@H]23)OCO4)cc(OC)c1OC` [PODOFILOX], the mortality at 1000 µg/mL with Mythimna separata [1] amounted to 40%; in the test on Mythimna separata [3], 17.9%; with Mythimna separata [4], 23.1%.

`CCc1ccc(S(=O)(=O)Oc2ccc(CO[C@H]3c4cc5c(cc4[C@@H](c4cc(OC)c(OC)c(OC)c4)[C@@]4(Cl)C(=O)OC[C@H]34)OCO5)cc2)cc1`: the results for the mortality at 1000 µg/mL in the test on Mythimna separata [1], in the test on Mythimna separata [3] and in the test on Mythimna separata [4] were 56%, 14.3% and 38.5%, respectively. Further, the result in the test with Mythimna separata [6] was Active.

Consider `COc1cc([C@@H]2c3cc4c(cc3[C@H](OCc3ccc(OS(=O)(=O)c5ccccc5)cc3)[C@H]3COC(=O)[C@]23Cl)OCO4)cc(OC)c1OC`, for which the mortality at 1000 µg/mL in the test with Mythimna separata [1] is 36%; in the test on Mythimna separata [3] it was 14.3%; in the test with Mythimna separata [4], 30.8%. Further, the result with Mythimna separata [5] was Active.

As for `COc1cc([C@@H]2c3cc4c(cc3[C@H](OCc3ccccc3OS(=O)(=O)c3cccc([N+](=O)[O-])c3)[C@H]3COC(=O)[C@]23Cl)OCO4)cc(OC)c1OC`, the mortality at 1000 µg/mL in the test with Mythimna separata [1] amounted to 36%; in the test on Mythimna separata [3], 10.7%; in the test on Mythimna separata [4], 34.6%. Further, the outcome with Mythimna separata [2] and in the test with Mythimna separata [5] was Active.

Turning to `COc1cc([C@@H]2c3cc4c(cc3[C@H](OCc3ccc(OS(=O)(=O)c5cccc([N+](=O)[O-])c5)cc3)[C@H]3COC(=O)[C@]23Cl)OCO4)cc(OC)c1OC`, the mortality at 1000 µg/mL with Mythimna separata [1] turned out to be 52%; in the test with Mythimna separata [3], 14.3%; with Mythimna separata [4], 38.5%. Also, the result with Mythimna separata [5] was Active.

Take `COc1cc([C@@H]2c3cc4c(cc3[C@H](OCc3ccccc3)[C@H]3COC(=O)[C@]23Cl)OCO4)cc(OC)c1OC` [4ALPHA-BENZYLOXY-2-CHLOROPODOPHYLLOTOXIN]: the figures for the mortality at 1000 µg/mL in the test on Mythimna separata [1], with Mythimna separata [3] and with Mythimna separata [4] were 52%, 10.7% and 19.2%, respectively.

On to `COc1cc([C@@H]2c3cc4c(cc3[C@H](OCc3ccc(OS(=O)(=O)c5ccc(Cl)cc5)cc3)[C@H]3COC(=O)[C@]23Cl)OCO4)cc(OC)c1OC`, for which the values for the mortality at 1000 µg/mL with Mythimna separata [1], with Mythimna separata [3] and with Mythimna separata [4] were 40%, 28.6% and 38.5%, respectively.

As for `COc1cc([C@@H]2c3cc4c(cc3[C@H](OCc3ccc(OS(=O)(=O)c5ccc(Cl)c([N+](=O)[O-])c5)cc3)[C@H]3COC(=O)[C@]23Cl)OCO4)cc(OC)c1OC`, the mortality at 1000 µg/mL in the test on Mythimna separata [1] was found to be 48%; in the test with Mythimna separata [3] it was 17.9%; in the test on Mythimna separata [4] it was 26.9%.

Turning to `CCc1ccc(S(=O)(=O)Oc2ccccc2CO[C@H]2c3cc4c(cc3[C@@H](c3cc(OC)c(OC)c(OC)c3)[C@@]3(Cl)C(=O)OC[C@H]23)OCO4)cc1`, the mortality at 1000 µg/mL in the test with Mythimna separata [1] was 68%; in the test on Mythimna separata [3], 35.7%; in the test on Mythimna separata [4], 57.7%. In the test with Mythimna separata [6], the outcome was Active.

On to `COc1cc([C@@H]2c3cc4c(cc3[C@H](OCc3ccccc3OS(=O)(=O)c3ccc(C)cc3)[C@H]3COC(=O)[C@]23Cl)OCO4)cc(OC)c1OC`, for which the mortality at 1000 µg/mL was determined as 52% in the test with Mythimna separata [1], 21.4% in the test on Mythimna separata [3] and 34.6% in the test on Mythimna separata [4].

In the case of `COc1cc([C@@H]2c3cc4c(cc3[C@H](OCc3ccccc3OS(=O)(=O)c3ccccc3)[C@H]3COC(=O)[C@]23Cl)OCO4)cc(OC)c1OC`, the mortality at 1000 µg/mL with Mythimna separata [1] was found to be 40%; in the test with Mythimna separata [3] it was 7.1%; with Mythimna separata [4], 26.9%. The outcome in the test on Mythimna separata [2] and with Mythimna separata [5] was Active.

Turning to `COc1cc([C@@H]2c3cc4c(cc3[C@H](OCc3ccccc3OS(=O)(=O)c3ccc(Cl)c([N+](=O)[O-])c3)[C@H]3COC(=O)[C@]23Cl)OCO4)cc(OC)c1OC`, the mortality at 1000 µg/mL in the test with Mythimna separata [1] turned out to be 72%; in the test on Mythimna separata [3] it was 25%; in the test on Mythimna separata [4], 57.7%. In addition, the result in the test on Mythimna separata [5] and in the test on Mythimna separata [6] was Active.
